Measured values reported in patent US20140235617A1, “Combinations of Hepatitis C Virus Inhibitors” (BRISTOL-MYERS SQUIBB COMPANY, priority 2010, published 2014).
Values joined by “and” are separate entries in the source; they are usually repeats but may differ in a detail not shown here. Equal values may be shown once. Read-outs that look alike come from different tables or passages of the source.

Test system: genotype Ib HCV replicon
Experiment: HCV replicon luciferase assay, monotherapy and triple combination studies
Type: cell-based
Details: monotherapy, 3 days, Expt 1-3
Source text: The HCV replicons used in these studies were generated at Bristol-Myers Squibb using the procedure described in WO2004014852. […] The functional replicon was then assembled in plasmid pGem9zf(+) (Promega, Madison, Wis.) using standard molecular biology techniques. To create a replicon encoding a luciferase reporter, the gene encoding humanized Renilla Luciferase protein was introduced upstream of the neomycin phosphotransferase gene.
HCV replicon cell lines were isolated from colonies as described by Lohman, et. al (Lohmann, V., F. Korner, J.-O. Koch, U. Herian, L. Theilmann, and R. Bartenschlager 1999, Science 285:110-113) and used for all experiments. Briefly, replicon clones were linearized with ScaI and RNA transcripts synthesized in vitro using the T7 MegaScript transcription kit (Ambion, Austin, Tex.) according to manufacturer's directions. […] After 24 h, selective media containing 0.5 mg/mL Geneticin (G418, Gibco-BRL, Rockville, Md.) was added and media was changed every 3 to 5 days. After approximately 4 weeks, cells were expanded for further analysis. Cells were maintained at 37° C. in DMEM (Gibco-BRL, Rockville, Md.) with 10% heat inactivated calf serum (Sigma), penicillin/streptomycin, and 0.5 mg/ml G418.
To determine compound efficacy, HCV replicon cells were plated at a density of 10^4 per well in 96-well plates in DMEM media containing 10% FBS. Following incubation overnight, compounds serially diluted in DMSO, or DMSO alone, were added to individual wells to a final DMSO concentration of 0.5%. Cell plates were then incubated at 37° C. for 3 days prior to assaying for cytotoxicity and HCV inhibition.
Plates were then washed two times with PBS and renilla luciferase activity assayed using a Dual-Glo Luciferase Assay System (Promega Corporation, Madison, Wis.) according to the manufacturer's directions. Plates were read on a TopCount NXT Microplate Scintillation and Luminescence Counter (Packard Instrument Company). The 50% effective concentration (EC50) was calculated by using Excel Fit (Version 2.0, Build 30).
Stock solutions, 200 times the desired final assay concentration, were prepared by 3-fold dilution in DMSO prior to addition to cells/media.

Compound: C=C[C@@H]1C[C@]1(NC(=O)[C@@H]1C[C@@H](Oc2ncc(OC)c3ccc(Cl)cc23)CN1C(=O)[C@@H](NC(=O)OC(C)(C)C)C(C)(C)C)C(=O)NS(=O)(=O)C1CC1 [NS3 PI]
- EC50 (Hepatitis C virus, 72 h, read-out: NS3 PI EC50): 0.825 nM
- EC50 (read-out: NS3 PI EC50): 1.2 nM and 0.705 nM

Compound: COC(=O)N[C@H](C(=O)N1CCCC1c1ncc(-c2ccc(-c3ccc(-c4cnc(C5CCCN5C(=O)[C@@H](NC(=O)OC)C(C)C)[nH]4)cc3)cc2)[nH]1)C(C)C (stereo partly shown) [NS5A Inhibitor]
- EC50 (Hepatitis C virus, 72 h, read-out: NS5A Inhibitor EC50): 0.002 nM
- EC50 (read-out: NS5A Inhibitor EC50): 0.003 nM
